Tests used:
Assay type in all cases: cell-based
[1] = system: recombinant NL4-3 virus (nef section replaced with Renilla luciferase gene) in MT-2 cells; assay: HIV cell culture assay (antiviral activity, luciferase readout)
Method in brief: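 Reporter virus is produced in 293T cells and its titer set in MT-2 cells by luciferase activity. MT-2 cells are then infected in the presence of serially diluted compound for 4-5 days. Luciferase is quantified and EC50 fitted to the median effect equation.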

[2] = Compound cytotoxicity, XTT-based colorimetric assay; details: human; uninfected MT2 cells, day 4, XTT; read-out: CC50
Method in brief: (§1)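 CC50 derived from XTT colorimetric signal measured on day 4 in MT2 cells that were not infected. All other steps followed the antiviral assay protocol.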

uninfected MT2 cells = assay: as above; details: uninfected MT2 cells, day 4, XTT
Method in brief: as §1

[3] = Renilla, NL43, MT-2 cells infected for 4-5 days with recombinant NL4-3 Renilla luciferase virus

Structure (SMILES)	EC50 [1, 3] [nM]	CC50 at 4 days [2] [nM]	EC50 ([1]; MT-2 cells infected for 4-5 days with recombinant NL4-3 Renilla luciferase virus) [nM]	CC50 (uninfected MT2 cells) [nM]
CS(=O)(=O)Nc1nn(CCN2CCC(F)CC2)c2c(-n3c([C@H](Cc4cc(F)cc(F)c4)NC(=O)Cn4nc(C5CC5)c5c4C[C@@H]4C[C@H]54)nc4nc(C5CCC(F)(F)CC5)cc(C(F)F)c4c3=O)ccc(Cl)c12 (atropisomer, axis not shown; (P)) [Example 371, N-[(1S)-1-[(3P)-3-{4-chloro-1-[2-(4-fluoropiperidin-1-yl)ethyl]-3-methanesulfonamido-1H-indazol-7-yl}-7-(4,4-difluorocyclohexyl)-5-(difluoromethyl)-4-oxo-3H,4H-pyrido[2,3-d]pyrimidin-2-yl]-2-(3,5-difluorophenyl)ethyl]-2-[(2S,4S)-9-cyclopropyl-7,8-diazatricyclo[4.3.0.0^2,^4]nona-1(6),8-dien-7-yl]acetamide]	0.009	> 20	–	–
CS(=O)(=O)Nc1nn(CCN2CC3C(C2)C(F)(F)C3(F)F)c2c(-n3c([C@H](Cc4cc(F)cc(F)c4)NC(=O)Cn4nc(C(F)F)c5c4C(F)(F)[C@@H]4C[C@H]54)nc4nc(C5CCC(F)(F)CC5)ccc4c3=O)ccc(Cl)c12 (stereo partly drawn) [Example 214, N-[(1S)-1-[(3P)-3-[4-chloro-3-methanesulfonamido-1-(2-{6,6,7,7-tetrafluoro-3-azabicyclo[3.2.0]heptan-3-yl}ethyl)-1H-indazol-7-yl]-7-(4,4-difluorocyclohexyl)-4-oxo-3H,4H-pyrido[2,3-d]pyrimidin-2-yl]-2-(3,5-difluorophenyl)ethyl]-2-[(2S,4R)-9-(difluoromethyl)-5,5-difluoro-7,8-diazatricyclo[4.3.0.0^2,^4]nona-1(6),8-dien-7-yl]acetamide]	0.015	> 50	–	–
Cc1cc(C2CCC(F)(F)CC2)nc2nc([C@H](Cc3cc(F)cc(F)c3)NC(=O)Cn3nc(C4CC4)c4c3C[C@@H]3C[C@H]43)n(-c3ccc(Cl)c4c(NS(C)(=O)=O)nn(CCN5C[C@@H](C)OC(C)(C)C5)c34)c(=O)c12 (atropisomer, axis not shown; (P)) [Example 459, N-[(1S)-1-[(3P)-3-(4-chloro-3-methanesulfonamido-1-{2-[(6R)-2,2,6-trimethylmorpholin-4-yl]ethyl}-1H-indazol-7-yl)-7-(4,4-difluorocyclohexyl)-5-methyl-4-oxo-3H,4H-pyrido[2,3-d]pyrimidin-2-yl]-2-(3,5-difluorophenyl)ethyl]-2-[(2S,4S)-9-cyclopropyl-7,8-diazatricyclo[4.3.0.0^2,^4]nona-1(6),8-dien-7-yl]acetamide]	0.005	> 20	–	–
CS(=O)(=O)Nc1nn(CCN2CCC(F)CC2)c2c(-n3c([C@H](Cc4cc(F)cc(F)c4)NC(=O)Cn4nc(C(F)F)c5c4C(F)(F)[C@@H]4C[C@H]54)nc4nc(C5CCC(F)(F)CC5)ccc4c3=O)ccc(Cl)c12 (atropisomer, axis not shown; (P)) [Example 166, N-[(1S)-1-[(3P)-3-{4-chloro-1-[2-(4-fluoropiperidin-1-yl)ethyl]-3-methanesulfonamido-1H-indazol-7-yl}-7-(4,4-difluorocyclohexyl)-4-oxo-3H,4H-pyrido[2,3-d]pyrimidin-2-yl]-2-(3,5-difluorophenyl)ethyl]-2-[(2S,4R)-9-(difluoromethyl)-5,5-difluoro-7,8-diazatricyclo[4.3.0.0^2,^4]nona-1(6),8-dien-7-yl]acetamide]	0.019	> 50	–	–
COCCCn1nc(NS(C)(=O)=O)c2c(Cl)ccc(-n3c([C@H](Cc4cc(F)cc(F)c4)NC(=O)Cn4nc(C(F)F)c5c4C(F)(F)[C@@H]4C[C@H]54)nc4nc(C5CCC(F)(F)CC5)cc(NCCN5C[C@@H](C)O[C@@H](C)C5)c4c3=O)c21 (atropisomer, axis not shown; (P)) [Example 475]	0.004	> 20	–	–
Cc1cc(C2(F)CCC(F)(F)CC2)nc2nc([C@H](Cc3cc(F)cc(F)c3)NC(=O)Cn3nc(C(F)F)c4c3C(F)(F)[C@@H]3C[C@H]43)n(-c3ccc(Cl)c4c(NS(C)(=O)=O)nn(C[C@@H](C)N5C[C@H](F)C[C@H](F)C5)c34)c(=O)c12 (atropisomer, axis not shown; (P)) [Example 703, N-[(1S)-1-[(3P)-3-{4-chloro-1-[(2S)-2-[(3R,5S)-3,5-difluoropiperidin-1-yl]propyl]-3-methanesulfonamido-1H-indazol-7-yl}-5-methyl-4-oxo-7-(1,4,4-trifluorocyclohexyl)-3H,4H-pyrido[2,3-d]pyrimidin-2-yl]-2-(3,5-difluorophenyl)ethyl]-2-[(2S,4R)-9-(difluoromethyl)-5,5-difluoro-7,8-diazatricyclo[4.3.0.0^2,^4]nona-1(6),8-dien-7-yl]acetamide]	–	–	0.017	> 20
Cc1cc(C2CCC(F)(F)CC2)nc2nc([C@H](Cc3cc(F)cc(F)c3)NC(=O)Cn3nc(C4CC4)c4c3C[C@@H]3C[C@H]43)n(-c3ccc(Cl)c4c(NS(C)(=O)=O)nn(CC(=O)NCCOC(C)C)c34)c(=O)c12 (atropisomer, axis not shown; (P)) [Example 393, N-[(1S)-1-[(3P)-3-[4-chloro-3-methanesulfonamido-1-({[2-(propan-2-yloxy)ethyl]carbamoyl}methyl)-1H-indazol-7-yl]-7-(4,4-difluorocyclohexyl)-5-methyl-4-oxo-3H,4H-pyrido[2,3-d]pyrimidin-2-yl]-2-(3,5-difluorophenyl)ethyl]-2-[(2S,4S)-9-cyclopropyl-7,8-diazatricyclo[4.3.0.0^2,^4]nona-1(6),8-dien-7-yl]acetamide]	0.035	> 20	–	–
Cc1cc(C2CCC(F)(F)CC2)nc2nc([C@H](Cc3cc(F)cc(F)c3)NC(=O)Cn3nc(C(F)F)c4c3C(F)(F)[C@@H]3C[C@H]43)n(-c3ccc(Cl)c4c(NS(C)(=O)=O)nn(CCN5C[C@@H](F)[C@@H](F)C5)c34)c(=O)c12 (atropisomer, axis not shown; (P)) [Example 267, N-[(1S)-1-[(3P)-3-(4-chloro-1-{2-[(3R,4S)-3,4-difluoropyrrolidin-1-yl]ethyl}-3-methanesulfonamido-1H-indazol-7-yl)-7-(4,4-difluorocyclohexyl)-5-methyl-4-oxo-3H,4H-pyrido[2,3-d]pyrimidin-2-yl]-2-(3,5-difluorophenyl)ethyl]-2-[(2S,4R)-9-(difluoromethyl)-5,5-difluoro-7,8-diazatricyclo[4.3.0.0^2,^4]nona-1(6),8-dien-7-yl]acetamide]	0.015	> 50	–	–

Reference: patent publication US12594276B2, “Inhibitors of human immunodeficiency virus replication” (ViiV Healthcare UK (No.5) Limited, priority 2024, dated 2026)
